Data on two molecules can be found in US20060019907A1, “Guggulsterone: an inhibitor of nuclear factor - kappaB and IkappaBalpha kinase activation and uses thereof” (Research Development Foundation, priority 2004, published 2006).

For one data set, the system named is U937 cells. In words: Cytotoxicity (MTT uptake) of guggulsterone with JNK inhibitor. The format is cell-based, human. The conditions noted are these: 72 h. The protocol: Cytotoxicity assay. The cytotoxic effects of guggulsterone was determined by the MTT uptake method. Briefly, 5000 cells were incubated with guggulsterone in triplicate in a 96-well plate at 37° C. MTT solution was then added to each well. After a 2-h incubation at 37° C., extraction buffer (20% SDS, 50% dimethylformamide) was added, the cells were incubated overnight at 37° C., and the OD was then measured at 570 nm using a 96-well multiscanner (Dynex Technologies, MRX Revelation, Chantilly, Va.).

Data set [1] deals with NF-κB p65 subunit (RelA) in nuclear extracts of TNF-treated human H1299 cells (human, UniProt Q04206 1-551). Description: EMSA supershift assay, nuclear extracts of TNF-treated H1299 cells. How it is done:
Nuclear extracts were prepared and tested for NF-κB activation. […] H1299 cells (2×10⁶/ml) were pre-incubated with 50 μM guggulsterone for the indicated times at 37° C. and then treated with 0.1 nM TNF for 30 min at 37° C. Nuclear extracts were prepared and then tested for NF-κB activation. […] Nuclear extracts from H1299 cells (2×10⁶/ml) treated or not treated with 0.1 nM TNF for 30 min were incubated with the antibodies indicated for 30 min at room temperature, and the complex was analyzed by supershift assay. […] Nuclear extracts from H1299 cells (2×10⁶/ml) treated or not treated with 0.1 nM TNF for 30 min were treated with the indicated concentrations of guggulsterone for 4 hours at room temperature and then assayed for DNA binding by EMSA.
NF-κB Activation: To determine NF-κB activation, EMSA was carried out as previously described (Chaturvedi et al., 2000). […] For supershift assays, nuclear extracts prepared from TNF-treated cells were incubated with antibodies against either the p50 or the p65 subunit of NF-κB for 30 min at room temperature before the complex was analyzed by EMSA. The dried gels were visualized, and radioactive bands were quantitated using a PHOSPHORIMAGER™ (Molecular Dynamics, Sunnyvale, Calif.) using IMAGEQUANT™ software.
(In general: A gel shift assay detects complexes by their altered migration in electrophoresis.)

NF-κB p65 subunit (RelA) in nuclear extracts of TNF-treated human H1299 cells, sequence (Q04206 whole entry): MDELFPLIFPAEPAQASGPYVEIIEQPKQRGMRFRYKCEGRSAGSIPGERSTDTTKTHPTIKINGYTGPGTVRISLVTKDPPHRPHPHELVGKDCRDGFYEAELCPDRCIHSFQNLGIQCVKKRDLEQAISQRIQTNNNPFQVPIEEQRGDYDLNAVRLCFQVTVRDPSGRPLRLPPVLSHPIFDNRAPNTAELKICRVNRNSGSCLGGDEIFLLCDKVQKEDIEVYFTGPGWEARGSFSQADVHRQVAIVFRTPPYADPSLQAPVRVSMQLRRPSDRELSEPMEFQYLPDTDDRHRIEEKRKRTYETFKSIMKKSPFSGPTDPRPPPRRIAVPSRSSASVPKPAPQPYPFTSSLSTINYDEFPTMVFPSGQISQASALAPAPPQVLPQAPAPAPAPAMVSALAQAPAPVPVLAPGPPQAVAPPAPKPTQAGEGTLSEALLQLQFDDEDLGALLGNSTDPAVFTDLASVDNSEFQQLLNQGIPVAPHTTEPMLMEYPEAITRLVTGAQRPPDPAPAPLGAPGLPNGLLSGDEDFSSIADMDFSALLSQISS

`Oc1c2ccccc2c2c3c(cccc13)N=N2` [SP600125]: the “guggulsterone induced cytotoxicity in combination with JNK inhibitor” value in the data set with U937 cells was “blocks guggulsterone induced cytotoxicity”.

B1: NF-κB p50 subunit (NF-κB1) in nuclear extracts of TNF-treated human H1299 cells (other, UniProt P19838 1-433, looked up)
chain: MAEDDPYLGRPEQMFHLDPSLTHTIFNPEVFQPQMALPTDGPYLQILEQPKQRGFRFRYVCEGPSHGGLPGASSEKNKKSYPQVKICNYVGPAKVIVQLVTNGKNIHLHAHSLVGKHCEDGICTVTAGPKDMVVGFANLGILHVTKKKVFETLEARMTEACIRGYNPGLLVHPDLAYLQAEGGGDRQLGDREKELIRQAALQQTKEMDLSVVRLMFTAFLPDSTGSFTRRLEPVVSDAIYDSKAPNASNLKIVRMDRTAGCVTGGEEIYLLCDKVQKDDIQIRFYEEEENGGVWEGFGDFSPTDVHRQFAIVFKTPKYKDINITKPASVFVQLRRKSDLETSEPKPFLYYPEIKDKEEVQRKRQKLMPNFSDSFGGGSGAGAGGGGMFGSGGGGGGTGSTGPGYSFPHYGFPTYGGITFHPGTTKSNAGMKHG
For the molecule B1, in data set [1], the binding result was “binds”.
